The values that follow come from US20070117770A1, “Human ribosomal DNA (rDNA) and ribosomal RNA (rRNA) nucleic acids and uses thereof” (Cylene Pharmaceuticals, Inc., priority 2005, published 2007).

Molecules are shown by their SMILES.

What all share (assay): Protein kinase inhibition assay
Type in all cases: biochemical

One assay addresses CK2(h) (Homo sapiens, UniProt P68400). Conditions: read-out: percent residual activity of CK2(h). On the procedure:
(§1) Certain compounds were tested for activity in protein kinase inhibition assays. All substrates were dissolved and diluted to working stocks in de-ionized water, apart from histone H1 (10× working stock in 20 mM MOPS pH 7.0), PDKtide (10× working stock in 50 mM Tris pH 7.0) ATF2 (which is typically stored at a 20× working stock in 50 mM Tris pH 7.5, 150 mM NaCl, 0.1 mM EGTA, 0.03% Brij-35, 50% glycerol, 1 mM benzamidine, 0.2 mM PMSF and 0.1% R-mercaptoethanol), KKLNRTLSFAEPG (SEQ ID NO:203) and RRRLSFAEPG (SEQ ID NO:204) (50 mM HEPES pH 7.4) and GGEEEEYFELVKKKK (SEQ ID NO:205) (20 mM MOPS pH 7.0). All kinases were pre-diluted to a 10× working concentration prior to addition into the assay. The composition of the dilution buffer for each kinase is detailed below.
In a final reaction volume of 25 μl, CK2 (h) (5-10 mU) is incubated with 20 mM HEPES pH 7.6, 0.15 M NaCl, 0.1 mM EDTA, 5 mM DTT, 0.1% Triton X-100, 165 μM RRRDDDSDDD (SEQ ID NO:215), 10 mM MgAcetate and [gamma-33P-ATP] (specific activity approx. 500 cpm/pmol, concentration as required). The reaction is initiated by the addition of the MgATP mix. After incubation for 40 minutes at room temperature, the reaction is stopped by the addition of 5 μl of a 3% phosphoric acid solution. […]

A further assay concerns the target Pim-1(h) (Homo sapiens, UniProt P11309). Conditions: read-out: percent residual activity of Pim-1(h). The protocol:
as §1
(§2) In a final reaction volume of 25 μl, Pim-1 (h) (5-10 mU) is incubated with 8 mM MOPS pH 7.0, 0.2 mM EDTA, 100 μM KKRNRTLTV (SEQ ID NO:219), 10 mM MgAcetate and [gamma-33P-ATP] (specific activity approx. 500 cpm/pmol, concentration as required). The reaction is initiated by the addition of the MgATP mix. After incubation for 40 minutes at room temperature, the reaction is stopped by the addition of 5 μl of a 3% phosphoric acid solution. 10 μl of the reaction is then spotted onto a P30 filtermat and washed three times for 5 minutes in 75 mM phosphoric acid and once in methanol prior to drying and scintillation counting.

Another assay has as its target PDGFRβ(h) (Homo sapiens, UniProt P09619). Conditions: read-out: percent residual activity of PDGFRβ(h). On the procedure:
as §1
as §2, with “PDGFRβ” for “Pim-1”, “0.1 mg/ml poly(Glu, Tyr) 4:1, 10 mM MnCl2,” for “100 μM KKRNRTLTV (SEQ ID NO:219),”, “Filtermat A” for “P30 filtermat”

Another assay addresses Snk(h) (Homo sapiens, UniProt Q9NYY3). Conditions: read-out: percent residual activity of Snk(h). On the procedure:
as §1
as §2, with “Snk” for “Pim-1”, “2 mg/ml casein,” for “100 μM KKRNRTLTV (SEQ ID NO:219),”

The target in another assay is CDK7/cyclinH/MAT1(h) (Homo sapiens, UniProt P50613). Conditions: read-out: percent residual activity of CDK7/cyclinH/MAT1(h). The protocol: as §1
Chain of CDK7/cyclinH/MAT1(h) (P50613 whole entry): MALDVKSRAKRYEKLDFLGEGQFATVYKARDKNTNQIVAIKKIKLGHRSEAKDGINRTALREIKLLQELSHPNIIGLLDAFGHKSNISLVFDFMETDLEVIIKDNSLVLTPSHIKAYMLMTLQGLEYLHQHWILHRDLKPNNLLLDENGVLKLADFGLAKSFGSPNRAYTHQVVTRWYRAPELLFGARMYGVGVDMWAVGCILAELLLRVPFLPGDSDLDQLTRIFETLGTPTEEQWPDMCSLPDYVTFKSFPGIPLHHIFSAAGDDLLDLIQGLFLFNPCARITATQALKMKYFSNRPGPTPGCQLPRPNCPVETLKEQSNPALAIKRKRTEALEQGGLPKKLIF
Chain of CDK7/cyclinH/MAT1(h) (P51946 whole entry partner): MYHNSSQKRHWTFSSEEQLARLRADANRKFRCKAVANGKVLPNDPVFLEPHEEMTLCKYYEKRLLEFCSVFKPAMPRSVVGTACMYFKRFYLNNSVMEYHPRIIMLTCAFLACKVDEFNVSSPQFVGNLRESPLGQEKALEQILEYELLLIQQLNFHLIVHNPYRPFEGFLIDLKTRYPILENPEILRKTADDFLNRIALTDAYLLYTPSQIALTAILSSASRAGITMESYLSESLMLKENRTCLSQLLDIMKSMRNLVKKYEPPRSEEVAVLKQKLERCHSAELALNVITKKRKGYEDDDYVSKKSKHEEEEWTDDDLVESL
Chain of CDK7/cyclinH/MAT1(h) (P51948 whole entry partner): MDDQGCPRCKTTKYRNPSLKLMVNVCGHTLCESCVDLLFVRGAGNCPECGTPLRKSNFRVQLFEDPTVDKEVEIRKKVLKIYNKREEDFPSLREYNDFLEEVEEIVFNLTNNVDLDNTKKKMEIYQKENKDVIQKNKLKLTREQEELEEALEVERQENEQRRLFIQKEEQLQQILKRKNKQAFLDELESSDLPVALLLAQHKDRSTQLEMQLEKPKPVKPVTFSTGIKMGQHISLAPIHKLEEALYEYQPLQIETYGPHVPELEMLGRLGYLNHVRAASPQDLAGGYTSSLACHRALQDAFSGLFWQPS
as §2, with “CDK7/cyclinH/MAT1” for “Pim-1”, “500” for “100”, “peptide,” for “KKRNRTLTV (SEQ ID NO:219),”, “[y-33P-ATP]” for “[gamma-33P-ATP]”

A further assay addresses Rse(h) (Homo sapiens, UniProt Q06418). Particulars: read-out: percent residual activity of Rse(h). The protocol:
as §1
In a final reaction volume of 25 μl, Rse (h) (5-10 mU) is incubated with 8 mM MOPS pH 7.0, 0.2 mM EDTA, 250 μM KVEKIGEGTYGVVYK (SEQ ID NO:211), 1 mM MnCl2, 10 mM MgAcetate and [gamma-33P-ATP] (specific activity approx. 500 cpm/pmol, concentration as required). The reaction is initiated by the addition of the MgATP mix. After incubation for 40 minutes at room temperature, the reaction is stopped by the addition of 5 μl of a 3% phosphoric acid solution. […]

Chain of PDGFRβ(h) (P09619 33-1106): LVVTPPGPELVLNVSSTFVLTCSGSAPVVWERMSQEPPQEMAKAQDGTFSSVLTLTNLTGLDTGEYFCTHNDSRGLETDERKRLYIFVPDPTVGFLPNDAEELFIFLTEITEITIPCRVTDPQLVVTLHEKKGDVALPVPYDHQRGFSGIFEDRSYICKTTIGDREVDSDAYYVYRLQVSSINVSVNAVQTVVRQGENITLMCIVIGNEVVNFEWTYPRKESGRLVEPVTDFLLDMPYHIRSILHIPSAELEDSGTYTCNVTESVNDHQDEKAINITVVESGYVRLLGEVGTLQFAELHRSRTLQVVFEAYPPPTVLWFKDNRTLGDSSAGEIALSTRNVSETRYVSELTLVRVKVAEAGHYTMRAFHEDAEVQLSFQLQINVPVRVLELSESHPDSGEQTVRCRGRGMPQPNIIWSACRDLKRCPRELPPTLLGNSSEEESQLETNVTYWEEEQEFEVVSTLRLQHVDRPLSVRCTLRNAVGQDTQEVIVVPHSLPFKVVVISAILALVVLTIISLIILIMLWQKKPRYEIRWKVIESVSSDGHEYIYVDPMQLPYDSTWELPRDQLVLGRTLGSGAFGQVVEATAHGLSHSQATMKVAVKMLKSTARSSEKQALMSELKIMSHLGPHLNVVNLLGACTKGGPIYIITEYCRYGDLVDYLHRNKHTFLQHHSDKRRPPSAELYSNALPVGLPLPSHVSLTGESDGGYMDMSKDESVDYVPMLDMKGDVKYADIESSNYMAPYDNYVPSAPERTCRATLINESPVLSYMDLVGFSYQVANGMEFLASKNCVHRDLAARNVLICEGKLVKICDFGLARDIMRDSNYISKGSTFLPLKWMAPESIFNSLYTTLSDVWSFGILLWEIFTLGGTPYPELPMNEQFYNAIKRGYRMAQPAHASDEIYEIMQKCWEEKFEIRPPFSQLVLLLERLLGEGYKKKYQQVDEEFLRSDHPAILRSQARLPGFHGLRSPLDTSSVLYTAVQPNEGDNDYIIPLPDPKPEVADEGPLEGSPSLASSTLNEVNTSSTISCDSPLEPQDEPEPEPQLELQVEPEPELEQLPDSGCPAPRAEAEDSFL
Chain of CK2(h) (P68400 whole entry): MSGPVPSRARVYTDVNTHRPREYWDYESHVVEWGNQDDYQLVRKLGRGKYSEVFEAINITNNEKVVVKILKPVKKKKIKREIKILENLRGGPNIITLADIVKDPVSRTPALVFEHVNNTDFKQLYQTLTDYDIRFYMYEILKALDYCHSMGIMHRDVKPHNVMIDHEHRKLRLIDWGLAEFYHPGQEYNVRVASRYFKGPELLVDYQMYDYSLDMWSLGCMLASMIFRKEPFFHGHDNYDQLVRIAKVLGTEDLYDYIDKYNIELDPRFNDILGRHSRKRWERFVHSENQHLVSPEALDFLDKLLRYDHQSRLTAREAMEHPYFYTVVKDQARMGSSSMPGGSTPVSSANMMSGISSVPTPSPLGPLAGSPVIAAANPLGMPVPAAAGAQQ
Chain of CK2(h) (P67870 whole entry partner): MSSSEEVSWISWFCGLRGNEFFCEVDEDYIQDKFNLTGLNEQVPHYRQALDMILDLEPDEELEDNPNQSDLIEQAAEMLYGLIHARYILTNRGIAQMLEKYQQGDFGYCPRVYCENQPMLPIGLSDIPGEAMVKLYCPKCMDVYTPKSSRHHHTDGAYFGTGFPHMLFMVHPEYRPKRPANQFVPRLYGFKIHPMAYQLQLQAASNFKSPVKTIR
Chain of Rse(h) (Q06418 41-890): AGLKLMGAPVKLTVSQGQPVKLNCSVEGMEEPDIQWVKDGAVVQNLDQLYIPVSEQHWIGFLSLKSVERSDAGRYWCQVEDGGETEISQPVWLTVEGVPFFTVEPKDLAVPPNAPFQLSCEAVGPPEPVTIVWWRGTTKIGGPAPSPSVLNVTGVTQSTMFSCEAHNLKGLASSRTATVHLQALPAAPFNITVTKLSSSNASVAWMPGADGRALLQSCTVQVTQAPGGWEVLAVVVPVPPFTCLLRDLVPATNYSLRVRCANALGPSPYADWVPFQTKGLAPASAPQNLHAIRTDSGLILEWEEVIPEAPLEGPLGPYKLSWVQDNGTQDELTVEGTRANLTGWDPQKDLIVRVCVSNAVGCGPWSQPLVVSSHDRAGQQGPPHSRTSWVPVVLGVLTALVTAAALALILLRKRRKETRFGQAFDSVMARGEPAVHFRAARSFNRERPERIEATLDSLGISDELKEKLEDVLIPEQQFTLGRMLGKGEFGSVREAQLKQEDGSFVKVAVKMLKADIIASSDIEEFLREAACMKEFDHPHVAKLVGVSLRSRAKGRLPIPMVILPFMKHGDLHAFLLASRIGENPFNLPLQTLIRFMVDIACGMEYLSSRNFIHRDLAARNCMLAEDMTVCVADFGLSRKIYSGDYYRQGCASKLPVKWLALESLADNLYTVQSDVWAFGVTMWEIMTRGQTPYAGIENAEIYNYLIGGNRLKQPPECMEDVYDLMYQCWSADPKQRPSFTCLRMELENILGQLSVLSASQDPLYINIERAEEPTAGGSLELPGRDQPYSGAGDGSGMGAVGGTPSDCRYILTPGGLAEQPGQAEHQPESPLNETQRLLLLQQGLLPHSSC
Chain of Pim-1(h) (P11309 whole entry): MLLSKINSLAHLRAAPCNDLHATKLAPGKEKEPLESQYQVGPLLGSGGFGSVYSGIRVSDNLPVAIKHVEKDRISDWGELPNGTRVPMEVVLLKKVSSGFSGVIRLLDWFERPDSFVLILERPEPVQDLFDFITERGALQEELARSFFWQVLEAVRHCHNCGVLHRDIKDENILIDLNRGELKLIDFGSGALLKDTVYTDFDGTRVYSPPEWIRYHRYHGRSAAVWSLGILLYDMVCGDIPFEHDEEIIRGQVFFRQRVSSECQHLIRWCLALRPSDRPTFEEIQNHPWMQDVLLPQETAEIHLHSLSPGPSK
Chain of Snk(h) (Q9NYY3 whole entry): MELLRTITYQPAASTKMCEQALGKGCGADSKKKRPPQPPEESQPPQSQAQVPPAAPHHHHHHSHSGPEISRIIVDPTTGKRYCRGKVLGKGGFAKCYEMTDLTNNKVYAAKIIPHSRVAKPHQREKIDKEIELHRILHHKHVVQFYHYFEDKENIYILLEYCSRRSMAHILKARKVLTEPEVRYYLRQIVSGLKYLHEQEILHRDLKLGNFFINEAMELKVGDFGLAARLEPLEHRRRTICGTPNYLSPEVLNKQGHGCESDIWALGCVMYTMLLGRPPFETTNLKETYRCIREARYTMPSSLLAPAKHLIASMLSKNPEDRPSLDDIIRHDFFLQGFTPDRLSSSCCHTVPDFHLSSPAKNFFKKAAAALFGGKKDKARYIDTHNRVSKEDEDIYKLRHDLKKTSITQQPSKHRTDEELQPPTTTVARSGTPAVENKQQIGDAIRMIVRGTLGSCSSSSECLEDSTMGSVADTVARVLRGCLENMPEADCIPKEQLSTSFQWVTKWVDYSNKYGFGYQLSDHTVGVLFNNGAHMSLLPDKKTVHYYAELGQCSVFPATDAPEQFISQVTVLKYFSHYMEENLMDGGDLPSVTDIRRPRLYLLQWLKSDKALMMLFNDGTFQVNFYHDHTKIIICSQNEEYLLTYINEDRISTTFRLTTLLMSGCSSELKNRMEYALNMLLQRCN

In the case of `CN1CCCC1CCNC(=O)c1cn2c3c(c(N4CCC(c5cnccn5)C4)c(F)cc3c1=O)Oc1cc3ccccc3cc1-2` (stereo not drawn) [Compound A-1], the remaining activity at 2.5 µM came out at 104% at CK2(h); 30% on Pim-1(h); 103% on PDGFRβ(h); 125% at Snk(h); 72% at CDK7/cyclinH/MAT1(h); 92% on Rse(h).

`CC(=O)N1CCN(c2ccc3c(=O)c(C(=O)NCCN4CCCC4)c4n(C)c5ccccc5n4c3n2)CC1` [Compound B-1]: the remaining activity at 2.5 µM was determined as 102% at CK2(h); 104% on Pim-1(h); 103% at PDGFRβ(h); 125% on Snk(h); 95% on CDK7/cyclinH/MAT1(h); 92% at Rse(h).
